A word on the IC50: it is the concentration that inhibits the measured activity by half. Low readings indicate inhibition by little substance, high ones a need for much substance.

The target of test [1] is Protein arginine N-methyltransferase 6 (Homo sapiens, UniProt Q96LA8). The experiment in a line: Inhibition of PRMT6 (unknown origin).
Test [2] deals with T1, Protein arginine N-methyltransferase 1 (Homo sapiens, UniProt Q99873). The experiment in a line: Inhibition of PRMT1 (unknown origin).
Test [3] addresses T2, Histone-arginine methyltransferase CARM1 (Homo sapiens, UniProt Q86X55).
T2 sequence (Q86X55 whole entry): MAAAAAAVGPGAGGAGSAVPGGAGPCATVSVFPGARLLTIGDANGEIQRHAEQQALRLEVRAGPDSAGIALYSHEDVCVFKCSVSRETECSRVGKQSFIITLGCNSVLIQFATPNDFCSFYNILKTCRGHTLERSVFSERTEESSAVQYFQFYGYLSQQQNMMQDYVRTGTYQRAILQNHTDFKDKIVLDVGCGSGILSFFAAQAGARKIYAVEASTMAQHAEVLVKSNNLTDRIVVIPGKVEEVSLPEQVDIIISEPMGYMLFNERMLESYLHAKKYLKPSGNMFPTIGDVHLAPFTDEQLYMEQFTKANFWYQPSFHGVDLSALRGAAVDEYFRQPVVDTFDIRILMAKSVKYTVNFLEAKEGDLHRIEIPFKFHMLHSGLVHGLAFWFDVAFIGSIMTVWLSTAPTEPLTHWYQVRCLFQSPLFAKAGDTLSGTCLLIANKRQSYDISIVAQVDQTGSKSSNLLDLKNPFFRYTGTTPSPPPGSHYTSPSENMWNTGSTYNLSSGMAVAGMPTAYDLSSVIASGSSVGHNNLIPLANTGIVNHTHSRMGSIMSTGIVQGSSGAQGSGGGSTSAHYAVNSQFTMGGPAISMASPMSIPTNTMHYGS
The experiment in a line: Inhibition PRMT4 (unknown origin).

Test [4] deals with Protein arginine N-methyltransferase 8 (Homo sapiens, UniProt Q9NR22). The experiment in a line: Inhibition of PRMT8 (unknown origin).
Test [5] deals with T1, Protein arginine N-methyltransferase 1. The experiment in a line: Inhibition of PRMT1 (unknown origin) by TR-FRET analysis. On the technique in general: Time-resolved FRET reads energy transfer from a long-lived donor to a nearby acceptor.

T1 sequence (Q99873 whole entry): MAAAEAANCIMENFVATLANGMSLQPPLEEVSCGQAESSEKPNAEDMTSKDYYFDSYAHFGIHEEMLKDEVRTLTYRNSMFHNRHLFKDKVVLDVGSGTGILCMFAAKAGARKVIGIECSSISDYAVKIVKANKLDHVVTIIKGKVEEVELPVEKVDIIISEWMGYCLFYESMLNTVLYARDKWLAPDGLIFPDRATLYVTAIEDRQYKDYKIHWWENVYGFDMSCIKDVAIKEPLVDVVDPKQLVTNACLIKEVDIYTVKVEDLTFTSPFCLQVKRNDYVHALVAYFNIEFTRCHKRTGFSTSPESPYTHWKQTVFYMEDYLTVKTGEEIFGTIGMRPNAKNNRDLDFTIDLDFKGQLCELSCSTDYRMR
Protein arginine N-methyltransferase 6, sequence (Q96LA8 whole entry): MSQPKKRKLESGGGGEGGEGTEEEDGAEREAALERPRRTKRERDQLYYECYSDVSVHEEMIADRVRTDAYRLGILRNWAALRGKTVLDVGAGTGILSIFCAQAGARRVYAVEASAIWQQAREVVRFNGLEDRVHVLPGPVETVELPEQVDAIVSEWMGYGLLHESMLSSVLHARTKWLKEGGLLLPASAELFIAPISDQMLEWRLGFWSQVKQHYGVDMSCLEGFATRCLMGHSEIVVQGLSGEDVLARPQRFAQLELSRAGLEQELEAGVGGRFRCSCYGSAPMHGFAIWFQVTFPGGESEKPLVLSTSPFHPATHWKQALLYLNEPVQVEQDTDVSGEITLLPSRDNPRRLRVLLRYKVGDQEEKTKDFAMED
Protein arginine N-methyltransferase 8, sequence (Q9NR22 whole entry): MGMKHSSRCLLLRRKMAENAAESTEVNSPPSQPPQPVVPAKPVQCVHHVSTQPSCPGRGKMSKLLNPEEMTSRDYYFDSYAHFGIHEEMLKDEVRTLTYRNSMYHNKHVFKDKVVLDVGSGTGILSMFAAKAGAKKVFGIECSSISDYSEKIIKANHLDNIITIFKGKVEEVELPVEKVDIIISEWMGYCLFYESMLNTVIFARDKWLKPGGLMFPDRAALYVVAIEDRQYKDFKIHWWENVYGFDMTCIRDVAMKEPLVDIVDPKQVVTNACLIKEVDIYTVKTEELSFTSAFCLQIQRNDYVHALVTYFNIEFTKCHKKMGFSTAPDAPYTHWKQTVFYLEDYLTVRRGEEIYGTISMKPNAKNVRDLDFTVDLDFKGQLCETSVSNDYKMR

The molecule `C=CC(C)(C)c1cc(/C=C/C(=O)c2ccc(O)cc2)c(OC)cc1O` [LICOAGROCHACONE A] registered a 50% inhibitory concentration (IC50) in test [1] of 22.3 µM.

On to `Cc1cc(C)cc([C@@H]2c3cc(C)ccc3NC(=O)CN2C(=O)c2ccc(Br)s2)c1`, for which the half-inhibitory concentration (IC50) in test [2], in test [3] and in test [4] was over 10 µM in each case.

As for `CNCCN(C)Cc1ccccc1Sc1ccccc1Cl`, the IC50 in test [5] was found to be 0.0053 µM.
